Measurements as given in ChEMBL document CHEMBL5214920, “Emerging impact of triazoles as anti-tubercular agent” (Eur J Med Chem, 2022).
Values after ≈ are worked out from the molar mass of the structure shown.

What was measured:
[1] = tested on: Mycobacterium tuberculosis; experiment: Antitubercular activity against Mycobacterium tuberculosis mc 2 6230 assessed as bacterial growth inhibition; format: functional
[2] = tested on: Mycobacterium tuberculosis; experiment: Antitubercular activity against Mycobacterium tuberculosis H37Rv assessed as bacterial growth inhibition at 6.25 ug/ml measured after 5 to 8 days by radiometric analysis relative to control; format: functional; parameters: scale not given: the % may be the effect or the level left; conditions: dose 6.25 µg/ml; time 5-8 day
[3] = tested on: Mycobacterium tuberculosis; experiment: Antitubercular activity against Mycobacterium tuberculosis H37Rv assessed as bacterial growth inhibition by micro broth dilution assay; format: functional
[4] = molecular target: DNA gyrase subunit B (Mycobacterium smegmatis, UniProt P0C559); experiment: Inhibition of Mycobacterium smegmatis GyrB incubated for 120 mins in presence of ATP by malachite green r staining based assay; parameters: species or system Mycolicibacterium smegmatis
[5] = molecular target: DNA gyrase subunit A/DNA gyrase subunit B (Mycobacterium tuberculosis (strain ATCC 25618 / H37Rv), UniProt P9WG45+P9WG47); experiment: Inhibition of Mycobacterium tuberculosis DNA gyrase supercoiling activity; format: protein-complex assay
[6] = tested on: Mycobacterium tuberculosis; experiment: Antitubercular activity against Mycobacterium tuberculosis H37Rv assessed as bacterial growth inhibition measured after 7 days by MABA method; format: functional; conditions: 168 h, time 7 day
[7] = tested on: Mycobacterium tuberculosis; experiment: Antitubercular activity against Mycobacterium tuberculosis H37Rv ATCC 27294 assessed as bacterial growth inhibition by agar dilution method; format: functional
[8] = tested on: Mycobacterium tuberculosis; experiment: Antitubercular activity against Mycobacterium tuberculosis H37Rv ATCC 27294 assessed as bacterial growth inhibition measured after 10 days by MABA method; format: functional; conditions: H37Rv ATCC 27294, 240 h, time 10 day
[9] = tested on: Mycobacterium tuberculosis; experiment: Antitubercular activity against Mycobacterium tuberculosis H37Rv ATCC 27294 assessed as bacterial growth inhibition; format: functional
[10] = tested on: Mycobacterium tuberculosis; experiment: Potency index, ratio of ethambutol MIC to test compound MIC for antitubercular activity against Mycobacterium tuberculosis H37Rv assessed as bacterial growth inhibition; format: functional
[11] = tested on: Mycobacterium tuberculosis; experiment: Antitubercular activity against Mycobacterium tuberculosis H37Rv ATCC 27294 assessed as bacterial growth inhibition measured after 9 days by twofold agar dilution method; format: functional; conditions: H37Rv ATCC 27294, 216 h, time 9 day
[12] = tested on: Mycobacterium tuberculosis; experiment: Antitubercular activity against Mycobacterium tuberculosis mc 2 7000 assessed as bacterial growth inhibition; format: functional
[13] = tested on: Mycobacterium tuberculosis; experiment: Antitubercular activity against Mycobacterium tuberculosis H37Rv assessed as bacterial growth inhibition; format: functional
[14] = tested on: Mycobacterium tuberculosis; experiment: Antitubercular activity against Mycobacterium tuberculosis H37Rv assessed as reduction in relative light units at 5 ug/ml incubated for 4 hrs followed by addition of D-luciferin by luciferase based luminometer analysis relative to control; format: functional; parameters: scale not given: the % may be the effect or the level left; conditions: dose 5 µg/ml
[15] = tested on: Mycobacterium tuberculosis; experiment: Antitubercular activity against Mycobacterium tuberculosis H37Rv assessed as reduction in relative light units at 25 ug/ml incubated for 4 hrs followed by addition of D-luciferin by luciferase based luminometer analysis relative to control; format: functional; parameters: scale not given: the % may be the effect or the level left; conditions: dose 25 µg/ml
[16] = tested on: Mycobacterium tuberculosis; experiment: Antitubercular activity against Mycobacterium tuberculosis H37Rv ATCC 27294 assessed as bacterial growth inhibition measured after 7 days by MABA method; format: functional; conditions: H37Rv ATCC 27294, 168 h, time 7 day
[17] = tested on: Mycobacterium tuberculosis; experiment: Antitubercular activity against Mycobacterium tuberculosis H37Rv assessed as bacterial growth inhibition measured after 5 days by MABA method; format: functional; conditions: 120 h, time 5 day
[18] = tested on: Mycobacterium tuberculosis; experiment: Antitubercular activity against Mycobacterium tuberculosis H37Rv assessed as bacterial growth inhibition measured after 7 days by broth microdilution assay; format: functional; conditions: 168 h, time 7 day
[19] = tested on: Mycobacterium tuberculosis; experiment: Antitubercular activity against Mycobacterium tuberculosis H37Rv ATCC 27294 assessed as bacterial growth inhibition measured after 5 days by MABA method; format: functional; conditions: H37Rv ATCC 27294, 120 h, time 5 day
[20] = tested on: Mycobacterium tuberculosis; experiment: Antitubercular activity against active stage of Mycobacterium tuberculosis H37Ra ATCC 25177 assessed as bacterial growth inhibition by XTT assay; format: functional
[21] = tested on: Mycobacterium tuberculosis; experiment: Antitubercular activity against Mycobacterium tuberculosis H37Rv assessed as bacterial growth inhibition measured after 7 days by direct susceptibility assay; format: functional; conditions: 168 h, time 7 day
[22] = tested on: Mycobacterium tuberculosis; experiment: Antitubercular activity against dormant stage of Mycobacterium tuberculosis H37Ra ATCC 25177 assessed as bacterial growth inhibition by XTT assay; format: functional
[23] = tested on: Mycobacterium tuberculosis; experiment: Antitubercular activity against Mycobacterium tuberculosis H37Rv assessed as reduction in relative light units at 2 ug/ml incubated for 4 hrs followed by addition of D-luciferin by luciferase based luminometer analysis relative to control; format: functional; parameters: scale not given: the % may be the effect or the level left; conditions: dose 2 µg/ml
[24] = tested on: Mycobacterium tuberculosis; experiment: Antitubercular activity against Mycobacterium tuberculosis H37Rv assessed as bacterial growth inhibition measured after 24 hrs by agar micro dilution method; format: functional
[25] = tested on: Mycobacterium tuberculosis; experiment: Antitubercular activity against Mycobacterium tuberculosis H37Rv ATCC 27294 assessed as bacterial growth inhibition measured after 48 hrs by broth dilution method; format: functional

DNA gyrase subunit A/DNA gyrase subunit B, sequence (P9WG45 whole entry): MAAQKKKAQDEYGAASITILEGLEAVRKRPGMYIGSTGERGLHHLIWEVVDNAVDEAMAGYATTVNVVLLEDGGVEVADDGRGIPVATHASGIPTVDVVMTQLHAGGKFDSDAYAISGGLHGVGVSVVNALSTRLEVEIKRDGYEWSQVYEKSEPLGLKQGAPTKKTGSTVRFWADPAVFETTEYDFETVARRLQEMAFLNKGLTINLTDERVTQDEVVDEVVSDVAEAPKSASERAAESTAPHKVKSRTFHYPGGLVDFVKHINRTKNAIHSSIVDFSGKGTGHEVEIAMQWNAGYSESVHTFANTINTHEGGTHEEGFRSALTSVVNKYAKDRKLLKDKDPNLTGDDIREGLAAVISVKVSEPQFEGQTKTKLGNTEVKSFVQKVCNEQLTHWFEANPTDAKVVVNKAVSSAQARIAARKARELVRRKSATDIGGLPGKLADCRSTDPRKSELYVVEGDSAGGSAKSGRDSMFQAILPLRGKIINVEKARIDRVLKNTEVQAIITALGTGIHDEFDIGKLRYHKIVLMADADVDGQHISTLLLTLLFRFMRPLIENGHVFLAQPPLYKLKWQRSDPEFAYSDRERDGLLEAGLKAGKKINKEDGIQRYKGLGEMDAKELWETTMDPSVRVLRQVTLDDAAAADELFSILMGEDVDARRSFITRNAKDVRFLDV
DNA gyrase subunit A/DNA gyrase subunit B, sequence (P9WG47 whole entry): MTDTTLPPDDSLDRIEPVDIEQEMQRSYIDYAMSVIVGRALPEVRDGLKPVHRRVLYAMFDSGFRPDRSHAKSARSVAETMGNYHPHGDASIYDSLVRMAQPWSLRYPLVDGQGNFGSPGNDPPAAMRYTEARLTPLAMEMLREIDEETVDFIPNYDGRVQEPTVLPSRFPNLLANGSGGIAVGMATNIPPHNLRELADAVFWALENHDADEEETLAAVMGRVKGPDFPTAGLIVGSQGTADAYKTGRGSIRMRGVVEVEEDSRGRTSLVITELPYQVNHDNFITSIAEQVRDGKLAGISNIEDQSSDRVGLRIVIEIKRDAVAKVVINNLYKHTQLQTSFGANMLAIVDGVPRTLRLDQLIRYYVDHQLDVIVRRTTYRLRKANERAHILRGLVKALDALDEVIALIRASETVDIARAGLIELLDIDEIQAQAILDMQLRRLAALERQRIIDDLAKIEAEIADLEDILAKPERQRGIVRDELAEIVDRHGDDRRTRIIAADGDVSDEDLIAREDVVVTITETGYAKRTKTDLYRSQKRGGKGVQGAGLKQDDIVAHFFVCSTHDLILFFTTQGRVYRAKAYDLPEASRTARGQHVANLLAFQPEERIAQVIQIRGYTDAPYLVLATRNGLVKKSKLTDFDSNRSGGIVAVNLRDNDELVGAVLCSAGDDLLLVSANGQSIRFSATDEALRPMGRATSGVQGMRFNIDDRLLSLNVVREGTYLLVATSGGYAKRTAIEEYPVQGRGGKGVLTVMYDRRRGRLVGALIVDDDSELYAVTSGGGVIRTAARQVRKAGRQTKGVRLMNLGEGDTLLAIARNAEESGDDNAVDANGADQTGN
DNA gyrase subunit B, sequence (P0C559 whole entry): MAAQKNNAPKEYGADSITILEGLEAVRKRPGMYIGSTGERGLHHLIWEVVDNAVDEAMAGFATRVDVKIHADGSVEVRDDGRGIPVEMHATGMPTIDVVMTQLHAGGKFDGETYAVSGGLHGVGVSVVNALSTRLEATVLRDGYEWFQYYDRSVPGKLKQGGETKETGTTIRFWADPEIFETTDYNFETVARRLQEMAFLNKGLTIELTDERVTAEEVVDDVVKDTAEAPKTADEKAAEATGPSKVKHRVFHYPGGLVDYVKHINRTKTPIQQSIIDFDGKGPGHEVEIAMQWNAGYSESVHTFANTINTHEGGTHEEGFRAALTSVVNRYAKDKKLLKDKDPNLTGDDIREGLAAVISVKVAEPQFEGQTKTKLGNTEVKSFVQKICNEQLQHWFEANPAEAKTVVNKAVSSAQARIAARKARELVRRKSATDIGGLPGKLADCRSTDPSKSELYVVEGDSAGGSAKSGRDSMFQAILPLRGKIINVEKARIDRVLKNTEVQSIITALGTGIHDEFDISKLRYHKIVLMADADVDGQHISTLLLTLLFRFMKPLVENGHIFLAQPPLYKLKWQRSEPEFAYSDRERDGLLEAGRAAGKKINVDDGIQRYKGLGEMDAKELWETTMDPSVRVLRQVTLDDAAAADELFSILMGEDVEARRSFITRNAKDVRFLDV

`COc1ccc2c(c1)/C(=N/NC(=O)c1ccncc1)C(=O)N2Cc1cn(-c2ccccc2/C=N\NC(=O)c2ccncc2)nn1` was tested. Which MIC99 [1] did it give?
The MIC99 was 0.36 µg/mL (≈ 0.599 µM).

With `Cc1nc2ccccc2n2c(-c3cccc([N+](=O)[O-])c3)nnc12` as the compound, how does the Activity [2] read?
The Activity was 2%.

For `CCCCCCCCCNC(=O)Cc1nnc2c3ccccc3cnn12`, which MIC [3] is on record?
Its MIC is 0.5 µg/mL.

Which IC50 [4] does the source give for `COc1ccc2cc(-n3cc(COc4nc(-c5ccccn5)sc4C(N)=O)nn3)c(=O)oc2c1` here?
Its IC50 is 440 nM.

What about the IC50 [5] of the same compound?
Its IC50 is 500 nM.

And the MIC [6]?
The MIC was 6.5 µM.

With `CC1(C)OC2C3OC(C)(C)O[C@H]3C(Cn3cc(N4CCCC4=O)nn3)O[C@@H]2O1` (stereo partly specified) as the compound, how does the MIC [7] read?
The MIC was 3.12 µg/mL (≈ 7.92 µM).

For `CC1=CN([C@H]2C[C@H](O)[C@@H](Cn3nnc(C(=O)c4ccc(Cl)cc4)c3-c3ccc(C(C)(C)C)cc3)O2)C(=O)CC1=O`, which MIC [8] is on record?
The MIC was 2 µg/mL (≈ 3.55 µM).

With `CCOC(=O)c1c(-n2cc(-c3ccc(C)cc3)nn2)c2ccccc2n(C)c1=O` as the compound, how does the MIC [9] read?
The MIC was 3.13 µg/mL (≈ 8.06 µM).

For `O=C(N/N=C1\C(=O)N(Cc2ccc(Cl)cc2)c2ccccc21)c1ccc(-n2cc(-c3ccccc3)nn2)cc1O`, which Ratio [10] is on record?
Its Ratio is 8.

And the MIC [6]?
The MIC was 0.39 µg/mL.

How did the MIC99 [1] turn out when `O=C(N/N=C\c1ccccc1-n1cc(CN2C(=O)/C(=N\NC(=O)c3ccncc3)c3cc(Cl)ccc32)nn1)c1ccncc1` was run?
The MIC99 was 0.36 µg/mL (≈ 0.595 µM).

With `CC1=CN([C@H]2C[C@H](O)[C@@H](Cn3nnc(C(=O)c4ccc(Br)cc4)c3-c3ccc([N+](=O)[O-])cc3)O2)C(=O)CC1=O` as the compound, how does the MIC [8] read?
Its MIC is 2 µg/mL (≈ 3.35 µM).

How did the MIC [8] turn out when `CC1=CN([C@H]2C[C@H](O)[C@@H](Cn3nnc(C(=O)c4ccc(Cl)cc4)c3-c3ccc(F)cc3)O2)C(=O)CC1=O` was run?
The MIC was 2 µg/mL (≈ 3.81 µM).

`O=C(OCc1cn(CCCc2ccccc2)nn1)c1ccc(F)cc1` was tested. Which MIC [11] did it give?
Its MIC is 3.75 µg/mL (≈ 11 µM).

`O=C(OCc1cn(-c2ccccc2)nn1)c1c[n+]([O-])c2ccc(Cl)cc2[n+]1[O-]` was tested. Which MIC [12] did it give?
The MIC was 30.4 µg/mL.

And the MIC [13]?
The MIC was 30.4 µg/mL (≈ 76.3 µM).

And the MIC [1]?
Its MIC is 30.4 µg/mL (≈ 76.3 µM).

With `CC1(C)OC2C3OC(C)(C)O[C@H]3C(Cn3cc(N4C(=O)CCC4=O)nn3)O[C@@H]2O1` (stereo partly specified) as the compound, how does the MIC [7] read?
Its MIC is 3.12 µg/mL (≈ 7.65 µM).

For `COc1cccc(-c2nnc3c(C)nc4ccccc4n23)c1`, which Activity [2] is on record?
Its Activity is 2%.

`Cc1nc2ccccc2n2c(-c3ccc(N(C)C)cc3)nnc12` was tested. Which Activity [2] did it give?
The Activity was 2%.

`CC(=O)OC[C@H]1O[C@@H](Oc2cn(Cc3ccc4ccccc4n3)nn2)[C@H](OC(C)=O)[C@@H](OC(C)=O)[C@H]1OC(C)=O` was tested. Which Activity [14] did it give?
Its Activity is 76.41%.

What about the Activity [15] of the same compound?
Its Activity is 78.37%.

`Cc1nc2ccccc2n2c(-c3ccccc3)nnc12` was tested. Which Activity [2] did it give?
Its Activity is 2%.

`CC1=C(C(=O)O)N2C(=O)[C@@H](NC(=O)[C@H](N)c3ccccc3)[C@H]2SC1` [CEPHALEXIN ANHYDROUS] was tested. Which MIC [12] did it give?
Its MIC is 72 µM.

Which results are given for `CC[C@@H](CO)NCCN[C@@H](CC)CO` [ETHAMBUTOL]?
MIC [16]: 7.64 µM (≈ 1.56 µg/mL); MIC [17]: 1.56 µg/mL (≈ 7.64 µM); MIC [18]: 6.25 µM (≈ 1.28 µg/mL); MIC [6]: 1.56 µg/mL; MIC [19]: 7.63 µM; MIC [3]: 1 µg/mL

For `CCc1cc(C(N)=S)ccn1` [ETHIONAMIDE], which MIC [12] is on record?
Its MIC is 90.4 µM.

With `NNC(=O)c1ccncc1` [ISONIAZID] as the compound, how does the MIC [12] read?
Its MIC is 2.92 µM.

And the MIC [8]?
Its MIC is greater than 300 µg/mL.

And the MIC [20]?
The MIC was 0.074 µg/mL (≈ 0.54 µM).

And the MIC [21]?
Its MIC is 0.075 µg/mL (≈ 0.547 µM).

And the MIC [22]?
The MIC was 0.043 µg/mL (≈ 0.314 µM).

And the MIC [19]?
Its MIC is 0.7 µM.

What about the MIC [3] of the same compound?
The MIC was 0.05 µg/mL.

For `CO[C@H]1/C=C/O[C@@]2(C)Oc3c(C)c(O)c4c(O)c(c(/C=N/N5CCN(C)CC5)c(O)c4c3C2=O)NC(=O)/C(C)=C\C=C\[C@H](C)[C@H](O)[C@@H](C)[C@@H](O)[C@@H](C)[C@H](OC(C)=O)[C@@H]1C` [RIFAMPIN], which MIC [12] is on record?
The MIC was 0.12 µM.

What about the MIC [20] of the same compound?
Its MIC is 0.074 µg/mL (≈ 0.0899 µM).

And the MIC [21]?
Its MIC is 0.043 µg/mL (≈ 0.0523 µM).

What about the Activity [23] of the same compound?
Its Activity is 87%.

What about the MIC [22] of the same compound?
Its MIC is 0.075 µg/mL (≈ 0.0911 µM).

What about the MIC [6] of the same compound?
Its MIC is 0.2 µg/mL.

For `CN[C@@H]1[C@H](O[C@H]2[C@H](O[C@H]3[C@H](O)[C@@H](O)[C@H](N=C(N)N)[C@@H](O)[C@@H]3N=C(N)N)O[C@@H](C)[C@]2(O)C=O)O[C@@H](CO)[C@H](O)[C@H]1O` [STREPTOMYCIN], which MIC [8] is on record?
The MIC was 2 µg/mL (≈ 3.44 µM).

And the MIC [24]?
The MIC was 3.12 µg/mL (≈ 5.37 µM).

What about the MIC [17] of the same compound?
Its MIC is greater than 6.25 µg/mL.

And the MIC [19]?
The MIC was 6.25 µg/mL.

How did the MIC [25] turn out when `Cc1ccc(-c2nc3ccc(C)cn3c2CC(=O)N(C)C)cc1` [ZOLPIDEM] was run?
Its MIC is 10 µM (≈ 3.07 µg/mL).

And the MIC [19]?
The MIC was 3.12 µg/mL.
